Values of other authors in patent publication US4610818A, “N-acyl derivatives of dipeptides, their preparation and their use in the therapy of disorders, and agents for this purpose” (BASF Aktiengesellschaft, priority 1982, dated 1986).

Tested on: tremor, rigor and akinesia
Details: Parkinson patients, MIF alone or in combination with L-dopa

L-Pro-L-Leu-Gly-NH2 [MIF]
effect on tremor, rigor and akinesia: advantageous effect
